Laboratory results published in US10358454B2, “Marinopyrrole derivatives and methods of making and using same” (H. LEE MOFFITT CANCER CENTER AND RESEARCH INSTITUTE, INC., priority 2014, dated 2019).
Entries after “also recorded” stand apart in the source; their conditions may differ. Like-named read-outs stand apart in the source and are kept apart here.

Legend:
[1] = system: human breast cancer MDA-MB-468 cells; test: Western blotting of MDA-MB-468 cells treated with marinopyrrole derivatives (Mcl-1, Bim, caspase 3); format: cell-based; details: 10 μM for 16 h
Method: The cells were then processed for western blotting according to a previously described methods (Balasis M E et al. Clin. Cancer Res. 2011, 17, 2852-2862). […] However, none of the cyclic marinopyrroles were active in intact cells.
(§1) ELISAs were performed using a modified version of a previously described procedure (Doi K et al. J. Biol. Chem. 2012, 287, 10224-10235). Briefly, 40 nM of biotinylated Bim BH3 peptide (Biomatik) in SuperBlock blocking buffer (Pierce) was incubated in high-binding capacity streptavidin-coated plates (Pierce) for 2 h. Compounds were diluted in 120 μl of PBS containing 10 nM of GST-Mcl-1 or GST-Bcl-xL in 1.5 mL tubes for 15 min. Wells were washed with wash buffer (PBS containing 0.05% Tween-20) and then 100 μL of the compound/GST-protein mixture was transferred to the wells. The plates were incubated for 2 h, and then the wells were washed with wash buffer. HRP-conjugated anti-GST antibody (Bethyl Laboratories) was diluted 1:2000 in SuperBlock and 100 μL was transferred to each well. The plate was incubated for 1 h, and then the wells were washed with wash buffer followed by PBS. 100 μL of SureBlue TMB Microwell Peroxidase Substrate (VWR) was added to each well and plates were developed for 5-10 min. 100 μL of 1 N HCl was added to each well to stop the reaction and absorbance was read at 450 nm using a μQuant plate reader (Bio-Tek).

[2] = molecular target: Mcl-1/Bim (Homo sapiens, UniProt Q07820); test: Mcl-1/Bim ELISA (GST-Mcl-1 binding to biotinylated Bim BH3 peptide); details: for selectivity profile Mcl-1 vs Bcl-xL in words: from Mcl-1/Bim and Bcl-xL/Bim ELISA; for fold more potent than (±)-1 (1) against Mcl-1/Bim: relative to (±)-1
Method: as §1
(§2) ELISAs were performed using a similar procedure as previously described (Doi K, et al. J. Biol. Chem. 2012, 287, 10224-10235). Briefly, 40 nM of biotinylated Bim BH3 peptide (Biomatik) in SuperBlock blocking buffer (Pierce) was incubated in high-binding capacity streptavidin-coated plates (Pierce) for 2 h. Compounds were diluted in 120 μl of PBS containing 10 nM of GST-Mcl-1 or GST-Bcl-xL in 1.5 mL tubes for 15 min. Wells were washed with wash buffer (PBS containing 0.05% Tween-20) and then 100 μL of the compound/GST-protein mixture was transferred to the wells. The plates were incubated for 2 h, and then wells were washed with wash buffer. HRP-conjugated anti-GST antibody (Bethyl Laboratories) was diluted 1:2000 in SuperBlock and 100 μL was transferred to each well. The plate was incubated for 1 h, and then wells were washed with wash buffer followed by PBS. 100 μL of SureBlue TMB Microwell Peroxidase Substrate (VWR) was added to each well and plates were developed for 5-10 min. 100 μL of 1 N HCl was added to each well to stop the reaction and absorbance was read at 450 nm using μQuant plate reader (Bio-Tek).

[3] = system: cultured human cancer cells; test: Induction of apoptosis in cultured human cancer cells; format: cell-based; details: intact cell studies
[4] = molecular target: Bcl-xL/Bim (Homo sapiens, UniProt Q07817); test: Bcl-xL/Bim ELISA (GST-Bcl-xL binding to biotinylated Bim BH3 peptide); details: for fold more potent than (±)-1 (1) against Bcl-xL/Bim: relative to (±)-1
Method: as §1, §2

[5] = Solubility; details: aqueous solubility
[6] = Table 2-B, n ≥ 3, read-out: Mcl-1/Bim IC50 (average ± SEM)
[7] = Table 3-A structure I, Mcl-1 at 10 nM, n ≥ 3, read-out: Mcl-1-Bim IC50 (average ± SEM)
[8] = read-out: IC50 to inhibit the binding of Mcl-1 to Bim
[9] = Table 2-B, n ≥ 3 unless specified, read-out: Bcl-xL/Bim IC50 (average ± SEM)
[10] = Table 3-A structure I, Bcl-xL at 10 nM, n ≥ 3, read-out: Bcl-xL-Bim IC50 (average ± SEM)
[11] = read-out: IC50 to inhibit Bcl-xL/Bim binding
[12] = Table 1, Mcl-1 at 10 nM, n ≥ 3, read-out: Mcl-1-Bim IC50 (average ± SEM)
[13] = Table 1, Bcl-xL at 10 nM, n ≥ 3, read-out: Bcl-xL-Bim IC50 (average ± SEM)
[14] = Table 3-C structure IV, n ≥ 3, read-out: Mcl-1-Bim IC50 (average ± SEM)
[15] = Table 3-C structure IV, n ≥ 3 (IV-1: n = 2), read-out: Bcl-xL-Bim IC50 (average ± SEM)

Sequence of Bcl-xL/Bim (Q07817 whole entry): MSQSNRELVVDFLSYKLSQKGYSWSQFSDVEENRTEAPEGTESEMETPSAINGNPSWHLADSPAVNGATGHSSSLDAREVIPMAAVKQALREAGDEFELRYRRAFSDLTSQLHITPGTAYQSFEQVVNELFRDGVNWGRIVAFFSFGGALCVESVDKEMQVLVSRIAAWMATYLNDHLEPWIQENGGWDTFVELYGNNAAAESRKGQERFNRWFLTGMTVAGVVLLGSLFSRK
Sequence of Mcl-1/Bim (Q07820 whole entry): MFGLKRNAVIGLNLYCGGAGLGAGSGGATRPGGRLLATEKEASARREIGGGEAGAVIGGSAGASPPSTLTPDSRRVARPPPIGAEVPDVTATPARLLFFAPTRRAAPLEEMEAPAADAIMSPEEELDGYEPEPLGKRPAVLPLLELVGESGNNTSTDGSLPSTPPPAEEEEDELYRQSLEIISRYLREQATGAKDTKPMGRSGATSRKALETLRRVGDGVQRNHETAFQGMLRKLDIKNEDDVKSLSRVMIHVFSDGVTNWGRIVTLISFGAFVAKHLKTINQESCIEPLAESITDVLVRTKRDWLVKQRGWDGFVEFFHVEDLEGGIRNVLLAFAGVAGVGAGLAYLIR

| Compound | IC50 [2, 6] | IC50 [4, 10] | IC50 [4, 11] | IC50 [2, 12] | IC50 [4, 13] | effect on levels of Mcl-1 and Bim and cleavage of caspase 3 [1] | induction of apoptosis [3] | IC50 [4, 9] | also measured |
| --- | --- | --- | --- | --- | --- | --- | --- | --- | --- |
| O=C(c1ccccc1O)c1[nH]c(Cl)c(Cl)c1-n1c(C(=O)c2ccccc2O)cc(Cl)c1Cl (single isomer, unassigned) [(−)-1, reference compound] | – | – | – | – | – | able to decrease Mcl-1 and Bim and to cleave caspas 3 | – | – | – |
| C=Cc1ccc(C(=O)c2[nH]c(Cl)c(Cl)c2-n2c(C(=O)c3ccc(C=C)cc3O)cc(Cl)c2Cl)c(O)c1 [Compound 1-4, (4,4′,5,5′-Tetrachloro-1′H-1,3′-bipyrrole-2,2′-diyl)bis((2-hydroxy-4-vinylphenyl)methanone)] | – | – | – | – | – | – | induced apoptosis | – | selectivity profile Mcl-1 vs Bcl-xL in words [2]: dual Mcl-1 and Bcl-XL antagonists |
| COC(=O)c1ccc(C(=O)c2[nH]c(Cl)c(Cl)c2-n2c(C(=O)c3ccc(C(=O)OC)cc3O)cc(Cl)c2Cl)c(O)c1 [Compound I-17, Dimethyl-4,4′-(4,4′,5,5′-tetrachloro-1′H-[1,3′-bipyrrole]-2,2′-dicarbonyl)bis(3-hydroxybenzoate)] | – | > 100 µM | > 100 µM | – | – | significant decrease in the levels of Mcl-1 and Bim, and cleavage of caspase 3 | – | – | activity against Mcl-1/Bim in words [2]: showed activity; IC50 [2, 7]: 16.9 ± 2.3 µM |
| CCOP(=O)(OCC)c1ccc(C(=O)c2[nH]c(Cl)c(Cl)c2-n2c(C(=O)c3ccc(P(=O)(OCC)OCC)cc3O)cc(Cl)c2Cl)c(O)c1 [Compound I-19, tetraethyl((4,4′,5,5′-tetrachloro-1′H-[1,3′-bipyrrole]-2,2′-dicarbonyl)bis(3-hydroxy-4,1-phenylene))bis(phosphonate)] | – | > 100 µM | > 100 µM | – | – | little effect on Mcl-1, Bim or caspase 3 | – | – | IC50 ([2]; read-out: Mcl-1-Bim IC50 (average ± SEM)): 7.7 ± 2.2 µM |
| COC(=O)c1ccc(C(=O)c2cc(Cl)c3n2-c2c([nH]c(Cl)c2Cl)C(=O)c2ccc(C(=O)OC)cc2O3)c(O)c1 [IV-3, Methyl-2,3,7-trichloro-5-(2-hydroxy-4-(methoxycarbonyl)benzoyl)-13-oxo-1,13-dihydrobenzo[g]-dipyrrolo[2,1-b:3′,2′-d][1,3]oxazocine-10-carboxylate] | 4.1 ± 1.4 µM | – | – | 4.3 ± 1.5 µM | 3.4 ± 0.9 µM | – | – | 10.1 ± 2.2 µM | IC50 [2, 14]: 4.1 ± 1.4 µM; fold more potent than (±)-1 (1) against Mcl-1/Bim [2]: two-fold; activity against Bcl-xL/Bim in words [4]: slight increase in potency; IC50 [4, 15]: 10.1 ± 2.2 µM; fold more potent than (±)-1 (1) against Bcl-xL/Bim [4]: seven-fold |
| O=C(O)c1ccc(C(=O)c2cc(Cl)c3n2-c2c([nH]c(Cl)c2Cl)C(=O)c2ccc(C(=O)O)cc2O3)c(O)c1 [IV-4, 5-(4-Carboxy-2-hydroxybenzoyl)-2,3,7-trichloro-13-oxo-1,13-dihydrobenzo[g]dipyrrolo[2,1-b:3′,2′-d][1,3]oxazocine-10-carboxylic acid] | 3.9 ± 1.1 µM | – | – | 66.6 ± 2.6 µM | > 100 µM | – | – | 18.3 ± 3 µM | IC50 [2, 14]: 3.9 ± 1.1 µM; IC50 [4, 15]: 18.3 ± 3 µM |
| O=C1c2ccc(P(=O)(O)O)cc2Oc2c(Cl)cc(C(=O)c3ccc(P(=O)(O)O)cc3O)n2-c2c1[nH]c(Cl)c2Cl [IV-6, 3-Hydroxy-4-(2,3,7-trichloro-13-oxo-10-phosphoryl-1,13-dihydrobenzo[g]dipyrrolo[2,1-b:3′,2′-d][1,3]oxazocine-5-carbonyl) phosphonic acid] | – | – | > 100 µM | > 100 µM | > 100 µM | – | – | – | IC50 [2, 8]: > 100 µM |
| COc1ccccc1C(=O)c1c(-n2c(C(=O)c3ccccc3OC)cc(Cl)c2Cl)c(Cl)c(Cl)n1C [VI-11] | – | – | – | – | – | – | induced apoptosis | – | selectivity for Mcl-1 over Bcl-xL (Mcl-1/Bim over Bcl-xL/Bim) ([2]; ratio of ELISA IC50 values): 4.2 fold |

The next lines start with results.

| IC50 [2, 6] | IC50 [4, 10] | IC50 [4, 11] | IC50 [2, 12] | IC50 [4, 13] | Compound | effect on levels of Mcl-1 and Bim and cleavage of caspase 3 [1] | induction of apoptosis [3] | IC50 [4, 9] | also measured |
| --- | --- | --- | --- | --- | --- | --- | --- | --- | --- |
| 2.1 ± 0.5 µM | 3.9 ± 1.3 µM | – | – | – | CCc1ccc(C(=O)c2[nH]c(Cl)c(Cl)c2-n2c(C(=O)c3ccc(CC)cc3O)cc(Cl)c2Cl)c(O)c1 [Compound 1-5, (4,4′,5,5′-Tetrachloro-1′H-1,3′-bipyrrole-2,2′-diyl)bis((4-ethyl-2-hydroxyphenyl)methanone)] | – | induced apoptosis | 3.9 ± 1.2 µM | IC50 [2, 7]: 2.1 ± 0.5 µM; selectivity profile Mcl-1 vs Bcl-xL in words [2]: dual Mcl-1 and Bcl-XL antagonists; IC50 [2, 8]: 2.1 µM |
| – | > 100 µM | – | – | – | O=C(O)c1ccc(C(=O)c2[nH]c(Cl)c(Cl)c2-n2c(C(=O)c3ccc(C(=O)O)cc3O)cc(Cl)c2Cl)c(O)c1 [Compound I-18, 4,4′-(4,4′,5,5′-Tetrachloro-1′H-[1,3′-bipyrrole]-2,2′-dicarbonyl)bis(3-hydroxybenzoic acid)] | did not decrease Mcl-1 and Bim, and resulted in little caspase 3 cleavage | – | – | IC50 [2, 7]: 61.4 ± 7.6 µM; activity against Mcl-1/Bim in words ([2]; listed as 7a): lower activity than 1; also recorded: less active; activity against Bcl-xL/Bim in words ([4]; listed as 7a): little activity; also recorded: less active; solubility in words [5]: improvement in aqueous solubility |
| – | – | – | 1.4 ± 0.3 µM | 2.3 ± 1.1 µM | O=C1c2ccc(OS(=O)(=O)C(F)(F)F)cc2Oc2c(Cl)cc(C(=O)c3ccc(OS(=O)(=O)C(F)(F)F)cc3O)n2-c2c1[nH]c(Cl)c2Cl [IV-1, 3-Hydroxy-4-(2,3,7-trichloro-13-oxo-10-(((trifluoromethyl)sulfonyl)oxy)-1,13 dihydrobenzo[g]di-pyrrolo[2,1-b:3′,2′-d][1,3]oxazocine-5-carbonyl)phenyl trifluoromethanesulfonate] | – | – | – | fold more potent than (±)-1 (1) against Mcl-1/Bim [2]: six; fold more potent than (±)-1 (1) against Bcl-xL/Bim [4]: seven-fold |
| 8 ± 1.6 µM | – | – | 42.5 ± 6 µM | > 100 µM | O=C1c2ccc(O)cc2Oc2c(Cl)cc(C(=O)c3ccc(O)cc3O)n2-c2c1[nH]c(Cl)c2Cl [IV-2, 2,3,7-Trichloro-5-(2,4-dihydroxybenzoyl)-10-hydroxybenzo[g]dipyrrolo[2,1-b:3′,2′-d][1,3]oxazo-cin-13(1H)-one] | – | – | 9.5 ± 2.2 µM | IC50 [2, 14]: 8 ± 1.6 µM; selectivity profile Mcl-1 vs Bcl-xL in words [2]: dual Mcl-1 and BclxL antagonists; IC50 [4, 15]: 9.5 ± 2.2 µM |
| > 100 µM | – | 7.1 µM | – | – | Cn1c(Cl)c(Cl)c(-n2c(C(=O)c3ccccc3O)cc(Cl)c2Cl)c1C(=O)c1ccccc1O [VI-12] | – | induced apoptosis | – | IC50 ([2]; Table 3-E structure VI, n ≥ 3, read-out: Mcl-1-Bim IC50 (average ± SEM)): > 100 µM; IC50 [2, 8]: > 100 µM; selectivity for Bcl-xL over Mcl-1 ([4]; ratio of ELISA IC50 values): 12.7 fold |
